Peptide text beside a SMILES is read from it.
How the values were obtained:
BNGR-A24 [1] = molecular target: T1, BNGR-A24 (Bombyx mori, UniProt B3XXN7); assay: cell-based
T1 sequence (B3XXN7 1-391): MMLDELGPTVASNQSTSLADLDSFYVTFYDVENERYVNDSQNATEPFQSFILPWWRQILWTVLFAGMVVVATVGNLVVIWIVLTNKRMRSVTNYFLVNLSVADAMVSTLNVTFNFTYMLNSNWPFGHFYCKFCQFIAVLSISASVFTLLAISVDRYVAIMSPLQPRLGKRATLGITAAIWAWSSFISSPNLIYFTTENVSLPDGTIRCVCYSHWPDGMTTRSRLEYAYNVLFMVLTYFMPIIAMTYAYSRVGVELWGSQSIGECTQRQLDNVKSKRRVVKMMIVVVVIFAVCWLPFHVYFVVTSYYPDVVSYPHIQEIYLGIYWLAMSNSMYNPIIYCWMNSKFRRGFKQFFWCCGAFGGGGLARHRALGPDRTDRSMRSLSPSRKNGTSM
Experimental: (§1) The assays were performed as previously reported. Briefly, HEK293T cells seeded on a glass-based dish were co-transfected with pME18S plasmids carrying BNGRs and the promiscuous G protein alpha subunit, Gα15. Following 24 h incubation, the transfected cells were loaded with 500 μL of a Ca^2+ indicator solution (2 μM Fluo-4 AM [Dojin Chemicals, Kumamoto, Japan] and 0.01% Pluronic-F 127 [Anaspec, San Jose, CA, USA] in Opti-MEM [Life Technologies]) and incubated at 37°C for 30 min in a dark room. The cells were washed twice with Ringer’s solution and then 800 μL Ringer’s solution was added to the cells. Within a given run time, 100 μL of the following compounds were added sequentially: Ringer’s solution (at 15 s, vehicle control), the peptide of interest or a mixture with its potential competitor (at 60 s), and 100 μM ATP (at 120 s, an experimental control). Fluo-4-derived fluorescence was chronologically monitored using a confocal laser-scanning microscope (FV-1000D; Olympus, Tokyo, Japan), with the preinstalled dye mode for Fluo-3. At least three independent experiments were performed. Dose-response curves were generated and EC50 values were calculated from the obtained fitting curves.
In order to evaluate whether the three TRP receptor candidates, BNGR-A24, -A32, and -A33, function as receptors for B. mori TRPs, the response of these three BNGRs to chemically synthesized TRPs was examined using the Ca^2+ imaging assay.
The response of HEK293T cells co-expressing BNGR-A24 (A) or BNGR-A32 (B) and promiscuous mouse Gα15 to the TRPs was monitored using the Ca^2+ imaging technique. Dose-response curves are depicted as relative fluorescent intensity (mean ± S.D.; n = 3).

[2] = molecular target: EGFP-fused BNGR-A24 (Bombyx mori neuropeptide G protein-coupled receptor A24) (Bombyx mori) (UniProt B3XXN7)
[3] = molecular target: BNGR-A32 (Bombyx mori neuropeptide G protein-coupled receptor A32) (Bombyx mori)
BNGR-A24 [4] = molecular target: T1, BNGR-A24; assay: Ca2+ imaging assay of BNGR-A24 with competitor added together with the ligand; format: cell-based
Experimental: The assays were performed as previously reported. […] At least three independent experiments were performed.
Next, we examined the effect of simultaneous addition of spantide I and rITPL on ligand competition. The dose-response curve of 10–300 nM rITPL shifted in a similar manner to that observed for TK-4.
Fig 3 Effect of spantide I on the response of BNGR-A24 to rITPL and TK-4. Spantide I (SP), a potential competitor, was added together with rITPL or TK-4 and the response of BNGR-A24 was monitored using the Ca^2+ imaging assay. Dose-response curves of the responses are presented as relative fluorescent intensity (mean ± S.D.; n = 3). Asterisks indicate significant differences for treatment with the same ligand without spantide I (P < 0.05; Dunnett’s test).

BNGR-A24 [5] = molecular target: T1, BNGR-A24; assay: Competitive binding assay, RR-labeled ligands and CHO cells expressing EGFP-fused BNGR-A24; conditions: CHO cells, EGFP-fused BNGR-A24, 4°C
Experimental: Binding assays were performed as previously reported. Briefly, CHO cells were transfected with 2 μg of pME18S plasmids harboring enhanced green fluorescent protein (EGFP)-fused BNGR cDNA. The binding assay was performed with cells 24 h post transfection. The cells were pre-incubated at 4°C for 30 min prior to the assay to minimize receptor internalization by ligand binding. Following the addition of 50 μL of non-labeled ligand as a potential competitor, 50 μL of RR-labeled ligand was added. Subsequent to incubation at 4°C for 60 min, the cells were washed twice with an ice-cold fixation buffer (4% formaldehyde in PBS) and then 500 μL of the fixation buffer was added. The fluorescence derived from EGFP and RR was observed using a confocal microscope (FV-1000D) with preinstalled dye modes for EGFP and DsRed, respectively. The fluorescent data obtained from six individual cells of at least two independent experiments were analyzed using Fluoview software (Olympus).
Following 30-min exposure of the cells to RR-labeled rITPL or TK-4, both red fluorescence (derived from the RR-labeled ligands) and green fluorescence (derived from EGFP C-terminally fused to BNGR-A24) were observed on the cell surface, indicating ligand-receptor binding (Fig 4). […] In this case, the addition of 20 μM rITPL reduced the ligand-derived signal by approximately 90% compared to that observed without the addition of unlabeled ligand.
Fig 4 In vitro competitive binding assay of rITPL and TK-4 to BNGR-A24. (A–D) Microscopic imaging. The binding of RR-labeled ligands (A and C, rITPL; B and D, TK-4) and CHO cells expressing EGFP-fused BNGR-A24 was examined in the presence of potential competitors (A, TK-4; B, rITPL; C and D, spantide I [SP]). EGFP and RR fluorescences were observed by confocal microscopy. Co-localization is presented as yellow in the merged images (Merge). Representative images of cells from at least two independent experiments are shown. (E–H) Relative fluorescent intensity obtained from experiment images (A)–(D), respectively. […]

[6] = molecular target: EGFP-fused BNGR-A24 (Bombyx mori neuropeptide G protein-coupled receptor A24) (Bombyx mori) (UniProt B3XXN7); assay: fluorescent-ligand binding on cells (confocal microscopy); CHO cells expressing EGFP-fused BNGR-A24, pre-incubated at 4°C for 30 min; unlabeled competitor added, then RR-labeled ligand; 4°C for 60 min; washed and fixed (4% formaldehyde in PBS); RR fluorescence normalized by EGFP
[7] = tested on: BmN cells (BNGR-A24-expressing); assay: Competitive cGMP assay in BmN cells; format: cell-based, Bombyx mori; conditions: 30 min, IBMX
Experimental: BmN cells were plated in 12-well tissue culture plates (2 × 10^5 cells/well; Asahi glass, Yokohama, Japan) and maintained in normal growth medium (TC-100 [Applichem, Darmstadt, Germany], 10% FBS, and 50 μg/mL gentamycin). At 3 days post-seeding, the cells were pre-incubated in 800 μL of assay medium (TC-100 supplemented with 1 mM 1-methyl-3-isobutylxanthine [IBMX; Sigma-Aldrich, Tokyo, Japan]) and 1 mM phenylmethylsulfonyl fluoride for 10 min at 28°C. Following pre-incubation, 100 μL of a potential competitor and 100 μL of the peptide of interest were added sequentially to the medium and incubated at 28°C for 30 min. […] The extracted cAMP and cGMP were quantified in duplicate using a cAMP ELISA kit (Cayman Chemicals, Ann Arbor, MI, USA) and a cGMP EIA system (GE Healthcare, Hino, Japan), respectively. […]
Since ITPL and TK-4 are competitive ligands of BNGR-A24, we hypothesized that TK-4 might inhibit the cGMP signal induced by ITPL via the binding of ITPL to BNGR-A24. To confirm this hypothesis, we added an excess of TK-4 to BmN cells exposed to rITPL and evaluated the stimulatory effect of ITPL on the cGMP signal.
Fig 5 Effects of TK-4, rITPL, and spantide I on cyclic nucleotide levels in BmN cells. Intracellular cGMP (A) and cAMP (B) levels in BmN cells following 30-min incubation with the peptide and reagent of interest at the indicated concentrations were measured. […]

BNGR-A32 = molecular target: T2, BNGR-A32 (Bombyx mori, UniProt B3XXP5); assay: Ca2+ imaging assay of BNGR-A32 in HEK293T cells co-expressing Gα15; format: cell-based; conditions: HEK293T cells co-expressing BNGR-A32 and promiscuous mouse Gα15; Fluo-4 Ca2+ imaging; from fitted dose-response curves, n = 3
T2 sequence (B3XXP5 1-372): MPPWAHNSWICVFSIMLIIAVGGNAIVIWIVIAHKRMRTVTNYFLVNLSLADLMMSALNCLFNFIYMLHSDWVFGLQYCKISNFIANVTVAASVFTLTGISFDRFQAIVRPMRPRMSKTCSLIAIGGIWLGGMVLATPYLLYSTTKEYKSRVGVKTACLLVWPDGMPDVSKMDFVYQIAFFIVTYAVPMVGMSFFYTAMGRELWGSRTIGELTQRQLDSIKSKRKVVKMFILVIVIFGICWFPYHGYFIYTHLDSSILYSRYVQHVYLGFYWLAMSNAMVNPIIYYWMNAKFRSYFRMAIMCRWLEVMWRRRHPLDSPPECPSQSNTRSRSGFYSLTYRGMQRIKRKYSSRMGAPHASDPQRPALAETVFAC
Experimental: as §1, with “curves. […]” for “curves.”
The response of HEK293T cells co-expressing BNGR-A24 (A) or BNGR-A32 (B) and promiscuous mouse Gα15 to the TRPs was monitored using the Ca^2+ imaging technique. […]

Q: For `CSCC[C@H](NC(=O)[C@H](CC(N)=O)NC(=O)[C@H](C)NC(=O)[C@H](C)N)C(=O)N[C@@H](Cc1c[nH]cn1)C(=O)N[C@@H](CCC(N)=O)C(=O)N[C@@H](Cc1ccccc1)C(=O)N[C@@H](Cc1ccc(O)cc1)C(=O)NCC(=O)N[C@H](C(=O)N[C@@H](CCCNC(=N)N)C(N)=O)C(C)C` [TK-3] (H-AANMHQFYGVR-NH2; N-terminus assumed), which EC50 (BNGR-A24 [1]) is on record?
A: 0.79 nM

Q: For B. mori tachykinin-related peptide TK-3, which EC50 of the Ca2+ imaging response (Fluo-4) of HEK293T cells co-expressing BNGR-A24 and Galpha15 [2] is on record?
A: 0.79 nM

Q: What does the source list for B. mori tachykinin-related peptide TK-5?
A: EC50 of the Ca2+ imaging response (Fluo-4) of HEK293T cells co-expressing BNGR-A32 and Galpha15 [3]: 0.48 nM; EC50 of the Ca2+ imaging response (Fluo-4) of HEK293T cells co-expressing BNGR-A24 and Galpha15 [2]: 2.3 nM

Q: Which EC50 (BNGR-A24 [1]) does the source give for `CC[C@H](C)[C@H](N)C(=O)N1CCC[C@H]1C(=O)N[C@@H](CCC(N)=O)C(=O)NCC(=O)N[C@@H](Cc1ccccc1)C(=O)N[C@@H](CC(C)C)C(=O)NCC(=O)N[C@@H](CCSC)C(=O)N[C@@H](CCCNC(=N)N)C(N)=O` [TK-1] (H-IPQGFLGMR-NH2; N-terminus assumed) here?
A: 7.1 nM

Q: How did the EC50 of the Ca2+ imaging response (Fluo-4) of HEK293T cells co-expressing BNGR-A24 and Galpha15 [2] turn out when B. mori tachykinin-related peptide TK-4 was run?
A: 0.27 nM

Q: With spantide I as the molecule, how does the “Effect on response of BNGR-A24 to rITPL” value (BNGR-A24 [4]; 50 μM spantide I added with 10–300 nM rITPL, n = 3, vs no competitor) read?
A: significantly lower

Q: And the “Effect on response of BNGR-A24 to TK-4” value (BNGR-A24 [4]; simultaneous treatment with 10 μM or 50 μM spantide I, n = 3, Dunnett's test P < 0.05)?
A: significantly decreased

Q: And the “Fluorescence derived from RR-labeled TK-4” value (BNGR-A24 [5]; 50 μM spantide I as competitor)?
A: nearly complete quenching

Q: And the “Fluorescence derived from RR-labeled rITPL” value (BNGR-A24 [5]; 50 μM spantide I as competitor)?
A: nearly complete quenching

Q: For B. mori tachykinin-related peptide TK-1, which EC50 of the Ca2+ imaging response (Fluo-4) of HEK293T cells co-expressing BNGR-A24 and Galpha15 [2] is on record?
A: 7.1 nM

Q: With “Recombinant B. mori ion transport peptide-like (rITPL) (ligand)” as the molecule, how does the percent reduction of the RR-labeled TK-4 signal at 20 uM rITPL [6] read?
A: 90%

Q: B. mori tachykinin-related peptide TK-2 was tested. Which EC50 of the Ca2+ imaging response (Fluo-4) of HEK293T cells co-expressing BNGR-A24 and Galpha15 [2] did it give?
A: 0.49 nM

Q: `CC[C@H](C)[C@H](NC(=O)[C@H](Cc1ccccc1)NC(=O)[C@H](CCCCN)NC(=O)CNC(=O)[C@H](CCCNC(=N)N)NC(=O)[C@@H](NC(=O)[C@H](CO)NC(=O)[C@H](CC(C)C)NC(=O)[C@H](CC(=O)O)NC(=O)[C@H](Cc1ccc(O)cc1)NC(=O)[C@@H]1CCCN1)[C@@H](C)CC)C(=O)NCC(=O)N[C@H](C(=O)N[C@@H](CCCNC(=N)N)C(N)=O)C(C)C` [TK-4] (H-PYDLSIRGKFIGVR-NH2; N-terminus assumed) was tested. Which EC50 (BNGR-A24 [1]) did it give?
A: 0.27 nM

Q: And the “Fluorescence of RR-labeled rITPL on the cell surface” value (BNGR-A24 [5]; 1–100 μM unlabeled TK-4 added before RR-labeled rITPL)?
A: gradually decreased

Q: And the “Effect on rITPL-induced cGMP levels” value ([7]; BmN cells exposed to 100 nM rITPL, ≥3 μM TK-4 added as competitor)?
A: significant decrease

Q: And the “Intracellular cGMP levels” value ([7]; BmN cells, peptide alone at concentrations as high as 10 μM, 28°C, cGMP EIA)?
A: failed to increase

Q: How did the EC50 (BNGR-A24 [1]) turn out when `CSCC[C@H](NC(=O)CNC(=O)[C@H](Cc1ccccc1)NC(=O)[C@H](Cc1ccccc1)NC(=O)CNC(=O)[C@H](CCSC)NC(=O)[C@H](CCC(N)=O)NC(=O)CN)C(=O)N[C@@H](CCCNC(=N)N)C(N)=O` [TK-5] (H-GQMGFFGMR-NH2) was run?
A: 2.3 nM

Q: What about the EC50 (BNGR-A32) of the same molecule?
A: 0.48 nM
